Test results as given in patent US6420348B1, “Pectic polysaccharides purified from Angelica gigas nakai and purification method and use as immunostimulating agent thereof” (Korea Institute of Science and Technology, priority 1997, dated 2002).

Assays:
[1] = tested on: B cell-depleted cell group (T cells); assay: mitogenicity comparison, 3H-thymidine incorporation; assay type: cell-based, mice; conditions: 5 μg/ml
Text: (§1) In this example, the action mode of angelan was compared with those of other lymphocyte mitogens in three different lymphocyte groups. Lipopolysaccharide (LPS) was employed to induce the proliferation of B cell while phytohemagglutinin (PHA) and concanavalin A (Con A) were used as T cell mitogens. As a comitogen, that is, in order to induce both T-cells and B-cells to proliferate, pokeweed mitogen (PWM) was used.
(§2) Angelan was given to three different cell groups: total cell group including T- and B-cells, T cell-depleted cell group, and B cell-depleted cell group. Each cell groups were treated with angelan or one of LPS, PWM, Con A and PHA. After incubation, lymphocyte proliferation was measured by the incorporation of 3H-thymidine into the cellular DNA.

[2] = tested on: T cell-depleted cell group (B cells); assay: as above; assay type: cell-based, mice; conditions: for Proliferation B cells: 5 μg/ml; for mitogenicity (in words): B cell-enriched group
Text: as §1, §2

[3] = tested on: total cell group including T- and B-cells; assay: as above; assay type: cell-based, mice; conditions: 5 μg/ml
Text: as §1, §2

B16F10 melanoma = assay: host resistance model to syngeneic tumors; assay type: in vivo, BDF1 mice; conditions: for Viability: relative to non-treated mice; for Survival Animals (10 in total): survived 60 days
Experimental: The host resistance model to syngeneic tumors was prepared by the intraperitoneal transplantation of B16F10 melanoma to BDF1 mice. After transplantation, angelan was administered at a dose of 100 mg/kg/day while adriamicin was administered at a dose of 0.1 to 0.3 mg/kg. The survival rates of the treated mice was based on the viability of non-treated mice, and the number of the animals which survived for 60 days after the implantation, was counted.

B16F10 cancer cells = assay: direct cytotoxicity on cancer cells; assay type: cell-based; conditions: for survival number of treated cells as ratio to non-treated cells: 2 days
Experimental: Whether the anticancer effect of angelan came from specific mediation by cytotoxic T cells or from nonspecific mediation by macrophages and natural killer cells, was proven as follows. B16F10 cancer cells were treated with angelan and adriamicin at a dose of 0.3 to 30 μg/ml. After incubation for 2 days, the number of the survived cells was countered. The survival number of the treated cells was expressed as a ratio compared with the number of the non-treated cells.

Row | Compound | Proliferation T cells [1] | Proliferation B cells [2] | Proliferation B/T cells [3] | mitogenicity (in words) [2] | other results
1 | phytohemagglutinin [PHA] | 3127 cpm/200,000 cells | 446 cpm/200,000 cells | 1049 cpm/200,000 cells | – | –
2 | concanavalin A [Con A] | 3929 cpm/200,000 cells | 6566 cpm/200,000 cells | 6014 cpm/200,000 cells | – | –
3 | COc1cccc2c1C(=O)c1c(O)c3c(c(O)c1C2=O)C[C@@](O)(C(=O)CO)C[C@@H]3O[C@H]1C[C@H](N)[C@H](O)[C@H](C)O1 [Adriamicin] | – | – | – | – | Viability (B16F10 melanoma; adriamicin 0.1 mg/kg): 195%; Survival Animals (10 in total) (B16F10 melanoma; adriamicin 0.1 mg/kg): 0; Viability (B16F10 melanoma; adriamicin 0.3 mg/kg): >240%; Survival Animals (10 in total) (B16F10 melanoma; adriamicin 0.3 mg/kg): 2; cytotoxicity on cancer cells (in words) (B16F10 cancer cells): showed cytotoxicity on cancer cells; survival number of treated cells as ratio to non-treated cells (B16F10 cancer cells; 0.3 μg/ml): 56; survival number of treated cells as ratio to non-treated cells (B16F10 cancer cells; 1 μg/ml): 29; survival number of treated cells as ratio to non-treated cells (B16F10 cancer cells; 3 μg/ml): 9; survival number of treated cells as ratio to non-treated cells (B16F10 cancer cells; 10 μg/ml): 0; survival number of treated cells as ratio to non-treated cells (B16F10 cancer cells; 30 μg/ml): 0
4 | Lipopolysaccharide [LPS] | 869 cpm/200,000 cells | 11550 cpm/200,000 cells | 11665 cpm/200,000 cells | had an effect | –
5 | pokeweed mitogen [PWM] | 12171 cpm/200,000 cells | 358 cpm/200,000 cells | 10212 cpm/200,000 cells | had an effect | –
